Data set [1] concerns Staphylococcus aureus MS9861. In words: MIC by tube dilution method in brain heart infusion broth. The data set is classed as cell-based. The following applies: MS9861, pH 7.5, read-out: Antimicrobial activity (MIC) Staphylococcus aureus MS9861. As to the method: (§1) The minimum growth inhibitory concentrations (MIC) of the compounds (I) against various microorganisms were measured by a tube dilution method in a brain heart infusion broth (pH 7.5) as a medium.

Data set [2] relates to Klebsiella pneumoniae PCI602. The description is as above. The following applies: Klebsiella pneumoniae. The data set is classed as cell-based. As to the method:
as §1

Data set [3] has as its system Bacillus subtilis NRRL B-558. Described as above. The format is cell-based. Particulars: Bacillus subtilis. On the procedure: as §1
Data set [4] concerns Staphylococcus aureus 209P. The description is as above. The data set is classed as cell-based. Particulars: Staphylococcus aureus, 209P. On the procedure: as §1
In data set [5] the test system is Shigella dysenteriae JS 11910. Described as above. The following applies: JS11910, pH 7.5, read-out: Minimum growth inhibitory concentration. The data set is classed as cell-based. As to the method: as §1
The subject of data set [6] is Staphylococcus aureus MS10225. The data set is described as above. The data set is classed as cell-based. Particulars: Staphylococcus aureus, MS10225, pH 7.5, read-out: Minimum growth inhibitory concentration. On the procedure: as §1
For data set [7], the system named is Mycoplasma gallisepticum KP-13. The description is as above. The following applies: Mycoplasmoides gallisepticum, KP13, pH 7.5, read-out: Minimum growth inhibitory concentration. The data set is classed as cell-based. On the procedure:
as §1

In a further data set the test system is Escherichia coli NIHJ. The data set is described as above. The format is cell-based. Particulars: Escherichia coli, pH 7.5, read-out: Minimum growth inhibitory concentration. As to the method:
as §1

For the next data set, the system named is Sartina lutea PCI 1001. The data set is described as above. The format is cell-based. Particulars: pH 7.5, read-out: Minimum growth inhibitory concentration. On the procedure: as §1
Data set [8] concerns Corynebacterium bovis 1810. The description is as above. The data set is classed as cell-based. Particulars: Corynebacterium bovis, 1810, pH 7.5, read-out: Minimum growth inhibitory concentration. On the procedure:
as §1

Data set [9] in a line: Stability on standing at room temperature. The data set is classed as physicochemical. Particulars: left to stand at room temperature for one month. From the text:
Stable even when left to stand at room temperature for one month.

Setting [10] is: PCI602, pH 7.5, read-out: Antimicrobial activity (MIC) Klebsiella pneumonae PCI602.
Setting [11] is: NRRLB558, pH 7.5, read-out: Antimicrobial activity (MIC) Bacillus subtilis NRRL B558.
Setting [12] is: pH 7.5, read-out: Antimicrobial activity (MIC) Staphylococcus aureus 209P.

In brackets after ≈: the same amount, converted by molar mass. Read-outs that look alike come from different tables or passages of the source.

With `CCC1OC(=O)CC(O)C(C)C(OC2OC(C)C(OC3CC(C)(OC(C)=O)C(OC(=O)Cc4cccnc4)C(C)O3)C(N(C)C)C2O)C(CC=O)CC(C)C(=O)C=CC(C)=CC1C` (stereo not drawn), the MIC in [1] was 1.6 µg/mL (≈ 1.8 µM); in [2] (setting [10]) it was 3.1 µg/mL (≈ 3.49 µM); in [3] (setting [11]), < 0.2 µg/mL; in [4] (setting [12]) it was 0.4 µg/mL (≈ 0.451 µM).

In the case of `CCC1OC(=O)CC(O)C(C)C(OC2OC(C)C(OC3CC(C)(O)C(OC(=O)C(O)c4ccccc4)C(C)O3)C(N(C)C)C2O)C(CC=O)CC(C)C(=O)C=CC(C)=CC1C` (stereo not drawn), the MIC in data set [1] was 1.6 µg/mL (≈ 1.86 µM); in [2] (setting [10]), 3.1 µg/mL (≈ 3.6 µM); in data set [3] (setting [11]), 1.6 µg/mL (≈ 1.86 µM); in [4] (setting [12]), < 0.2 µg/mL.

As for `CCC1OC(=O)CC(O)C(C)C(OC2OC(C)C(OC3CC(C)(O)C(OC(=O)C(OC(C)=O)c4ccccc4)C(C)O3)C(N(C)C)C2O)C(CC=O)CC(C)C(=O)/C=C/C(C)=C/C1C` (stereo not drawn), the MIC in data set [1] came out at 3.1 µg/mL (≈ 3.44 µM); in data set [2] (setting [10]), 25 µg/mL (≈ 27.7 µM); in data set [3] (setting [11]), 0.8 µg/mL (≈ 0.887 µM); in data set [4] (setting [12]) it was 0.8 µg/mL (≈ 0.887 µM).

For `CCC1OC(=O)CC(O)C(C)C(OC2OC(C)C(OC3CC(C)(O)C(OC(=O)C4CCCCC4)C(C)O3)C(N(C)C)C2O)C(CC=O)CC(C)C(=O)/C=C/C(C)=C/C1C` (stereo not drawn), the MIC in [1] was found to be 3.1 µg/mL (≈ 3.71 µM); in data set [2] (setting [10]) it was 12.5 µg/mL (≈ 15 µM); in [3] (setting [11]) it was 0.2 µg/mL (≈ 0.239 µM); in data set [4] (setting [12]), 0.8 µg/mL (≈ 0.957 µM).

For the compound `CCC1OC(=O)CC(O)C(C)C(OC2OC(C)C(OC3CC(C)(OC(C)=O)C(OC(=O)C4CCCCC4)C(C)O3)C(N(C)C)C2O)C(CC=O)CC(C)C(=O)/C=C/C(C)=C/C1C` (stereo not drawn), the MIC in [1] is 6.3 µg/mL (≈ 7.17 µM); in [2] (setting [10]), > 100 µg/mL; in [3] (setting [11]), 0.4 µg/mL (≈ 0.456 µM); in data set [4] (setting [12]), 1.6 µg/mL (≈ 1.82 µM).

In the case of `CCC1OC(=O)CC(O)C(C)C(OC2OC(C)C(OC3CC(C)(O)C(OC(=O)Nc4ccccc4)C(C)O3)C(N(C)C)C2O)C(CC=O)CC(C)C(=O)/C=C/C(C)=C/C1C` (stereo not drawn), the MIC in data set [1] turned out to be 3.1 µg/mL (≈ 3.67 µM); in [2] (setting [10]), 6.3 µg/mL (≈ 7.46 µM); in [3] (setting [11]) it was 0.8 µg/mL (≈ 0.947 µM); in data set [4] (setting [12]), 0.8 µg/mL (≈ 0.947 µM).

Take `CCC1OC(=O)CC(O)C(C)C(OC2OC(C)C(OC3CC(C)(O)C(OS(=O)(=O)c4ccc(C)cc4)C(C)O3)C(N(C)C)C2O)C(CC=O)CC(C)C(=O)/C=C/C(C)=C/C1C` (stereo not drawn): the MIC is 6.3 µg/mL (≈ 7.16 µM) in data set [1], 3.1 µg/mL (≈ 3.52 µM) in data set [2] (setting [10]), 0.4 µg/mL (≈ 0.454 µM) in data set [3] (setting [11]) and < 0.2 µg/mL in [4] (setting [12]).

Regarding `CCC1OC(=O)CC(O)C(C)C(OC2OC(C)C(OC3CC(C)(O)C(OC(=O)CSc4ccncc4)C(C)O3)C(N(C)C)C2O)C(CC=O)CC(C)C(=O)C=CC(C)=CC1C` (stereo not drawn), the MIC in data set [1] is 1.6 µg/mL (≈ 1.82 µM); in [2] (setting [10]), 3.1 µg/mL (≈ 3.53 µM); in data set [3] (setting [11]) it was < 0.2 µg/mL; in [4] (setting [12]), < 0.2 µg/mL.

For `CCC1OC(=O)CC(O)C(C)C(OC2OC(C)C(OC3CC(C)(O)C(OC(=O)Cc4cccs4)C(C)O3)C(N(C)C)C2O)C(CC=O)CC(C)C(=O)C=CC(C)=CC1C` (stereo not drawn), the MIC in data set [1] was 1.6 µg/mL (≈ 1.88 µM); in data set [2] (setting [10]), 3.1 µg/mL (≈ 3.65 µM); in data set [3] (setting [11]), 0.4 µg/mL (≈ 0.471 µM); in data set [4] (setting [12]), 0.2 µg/mL (≈ 0.235 µM).

Regarding `CCC1OC(=O)CC(O)C(C)C(OC2OC(C)C(OC3CC(C)(OC(C)=O)C(OC(=O)CSc4ccncc4)C(C)O3)C(N(C)C)C2O)C(CC=O)CC(C)C(=O)C=CC(C)=CC1C` (stereo not drawn), the MIC in [1] was 0.8 µg/mL (≈ 0.87 µM); in data set [2] (setting [10]) it was 6.3 µg/mL (≈ 6.85 µM); in data set [3] (setting [11]), < 0.2 µg/mL; in data set [4] (setting [12]), < 0.2 µg/mL.

For `CCC1OC(=O)CC(O)C(C)C(OC2OC(C)C(OC3CC(C)(O)C(OC(=O)Cc4cccnc4)C(C)O3)C(N(C)C)C2O)C(CC=O)CC(C)C(=O)C=CC(C)=CC1C` (stereo not drawn), the MIC was 0.8 µg/mL (≈ 0.947 µM) in [1], 1.6 µg/mL (≈ 1.89 µM) in data set [2] (setting [10]), < 0.2 µg/mL in data set [3] (setting [11]) and < 0.2 µg/mL in data set [4] (setting [12]).

On to `CCC1OC(=O)CC(O)C(C)C(OC2OC(C)C(OC3CC(C)(O)C(OC4CCCCO4)C(C)O3)C(N(C)C)C2O)C(CC=O)CC(C)C(=O)/C=C/C(C)=C/C1C` (stereo not drawn), for which the MIC came to 3.1 µg/mL (≈ 3.83 µM) in data set [1], 3.1 µg/mL (≈ 3.83 µM) in data set [2] (setting [10]), 0.4 µg/mL (≈ 0.494 µM) in data set [3] (setting [11]) and 1.6 µg/mL (≈ 1.98 µM) in data set [4] (setting [12]).

As to `CCC1OC(=O)CC(O)C(C)C(OC2OC(C)C(OC3CC(C)(O)C(O)C(C)O3)C(N(C)C)C2O)C(CC=O)CC(C)C(=O)C=CC(C)=CC1C` (stereo not drawn) [Antibiotic YT-3927, antibiotic YT-3927], the MIC in data set [5] is 1.56 µg/mL (≈ 2.15 µM); in data set [6], 0.78 µg/mL (≈ 1.07 µM); in data set [7], 0.02 µg/mL (≈ 0.0276 µM); in the data set on Escherichia coli NIHJ, 25 µg/mL (≈ 34.4 µM); with Sartina lutea PCI 1001 it was < 0.2 µg/mL; in data set [8], 0.39 µg/mL (≈ 0.537 µM). Besides, the MIC came out at 3.1 µg/mL (≈ 4.27 µM) in [1]; 3.1 µg/mL (≈ 4.27 µM) in [2] (setting [10]); 3.12 µg/mL (≈ 4.3 µM) in data set [2] (PCI602, pH 7.5, read-out: Minimum growth inhibitory concentration); 0.4 µg/mL (≈ 0.551 µM) in [3] (setting [11]); 0.39 µg/mL (≈ 0.537 µM) in [3] (NRRLB558, pH 7.5, read-out: Minimum growth inhibitory concentration); 0.4 µg/mL (≈ 0.551 µM) in data set [4] (setting [12]). Further, in data set [4] (pH 7.5, read-out: Minimum growth inhibitory concentration), the MIC worked out at 0.39 µg/mL (≈ 0.537 µM). Further, the Stability result in data set [9] was “Stable”.

Turning to `CCC1OC(=O)CC(OC(C)=O)C(C)C(OC2OC(C)C(OC3CC(C)(OC(C)=O)C(OC(C)=O)C(C)O3)C(N(C)C)C2O)C(CC=O)CC(C)C(=O)C=CC(C)=CC1C` (stereo not drawn) [R1=COCH3; R2=COCH3; YR3=COCH3, 3,3",4"-triacetyl YT-3927], the MIC amounted to 3.1 µg/mL (≈ 3.64 µM) in [1], 100 µg/mL (≈ 117 µM) in [2] (setting [10]), 0.4 µg/mL (≈ 0.469 µM) in data set [3] (setting [11]) and 1.6 µg/mL (≈ 1.88 µM) in [4] (setting [12]).

`CCC1OC(=O)CC(OC(C)=O)C(C)C(OC2OC(C)C(OC3CC(C)(O)C(OC(=O)CC(C)C)C(C)O3)C(N(C)C)C2O)C(CC=O)CC(C)C(=O)C=CC(C)=CC1C` (stereo not drawn) [R1=COCH3; R2=H; YR3=COCH2CH(CH3)2, 3-acetyl-4"-isovaleryl YT-3927]: the MIC was determined as 6.3 µg/mL (≈ 7.39 µM) in data set [1], 25 µg/mL (≈ 29.3 µM) in [2] (setting [10]), 0.8 µg/mL (≈ 0.939 µM) in [3] (setting [11]) and 0.4 µg/mL (≈ 0.469 µM) in [4] (setting [12]).

As to `CCC1OC(=O)CC(O)C(C)C(OC2OC(C)C(OC3CC(C)(OC(C)=O)C(OC(=O)CC(C)C)C(C)O3)C(N(C)C)C2O)C(CC=O)CC(C)C(=O)C=CC(C)=CC1C` (stereo not drawn) [R1=H; R2=COCH3; YR3=COCH2CH(CH3)2], the MIC in data set [1] worked out at 1.6 µg/mL (≈ 1.88 µM); in data set [2] (setting [10]) it was 25 µg/mL (≈ 29.3 µM); in data set [3] (setting [11]), 0.8 µg/mL (≈ 0.939 µM); in [4] (setting [12]), 0.8 µg/mL (≈ 0.939 µM).

Turning to `CCC1OC(=O)CC(O)C(C)C(OC2OC(C)C(OC3CC(C)(O)C(OC(=O)CC(C)C)C(C)O3)C(N(C)C)C2O)C(CC=O)CC(C)C(=O)C=CC(C)=CC1C` (stereo not drawn) [R1=H; R2=H; YR3=COCH2CH(CH3)2, 4"-isovaleryl YT-3927], the MIC was determined as 1.6 µg/mL (≈ 1.98 µM) in data set [1], 6.3 µg/mL (≈ 7.78 µM) in data set [2] (setting [10]), 0.4 µg/mL (≈ 0.494 µM) in data set [3] (setting [11]) and 0.4 µg/mL (≈ 0.494 µM) in data set [4] (setting [12]).
